Measured values from patent publication EP4467153A1, “CONSTRAINED PEPTIDE INHIBITORS OF LRRK2-FADD INTERACTIONS” (University of Georgia Research Foundation, Inc., priority 2023, dated 2024).
Entries after “also recorded” stand apart in the source; their conditions may differ. Positions of bridges follow the written chain, without caps; N, C: chain ends. Non-standard residues stand in square brackets, D forms with d. Primed or numbered codes have the meaning given here. FAM = 5(6)-carboxyfluorescein label; S5 = C=CCCC[C@](C)(N)C(=O)O; PEG3′ = PEG3 spacer

Test system: primary cortical neurons expressing G2019S-LRRK2
Assay: Assessment of neuronal death (apoptotic nuclear features of transfected neurons)
Type: cell-based, mouse
Conditions: 48hr treatment, vs vehicle
Text: Disruption of the LRRK2-FADD PPI is neuroprotective. It has been previously shown that over-expression of mutant LRRK2 (G2019S or other pathogenic mutations) in primary cortical neurons results in apoptotic death of the neurons (see Iaccarino C, Crosio C, Vitale C, Sanna G, Carri MT, Barone P (2007) Apoptotic mechanisms in mutant LRRK2-mediated cell death. Hum Mol Genet 16, 1319-1326); and this example continues this area of identifying pathway(s) underlying cell-autonomous neuronal death in models of LRRK2-PD. […] Disruption of this interaction by dominant negative fragments of both FADD and LRRK2, or by deletion of the predicted FADD-binding domain within LRRK2, is neuroprotective against over-expression of mutant LRRK2. To determine whether FARMS could effectively disrupt the apoptotic death of primary neurons induced by pathogenic LRRK2, mouse embryonic cortical neurons were transiently transfected with G2019S-LRRK2 and increasing concentrations of the FARMS peptide were added. In cultures of neurons expressing G2019S-LRRK2, apoptotic Flag-positive neurons with characteristic fragmented and condensed nuclear apoptotic features, were observed as has been reported previously. […] A third neuron is visible within this field (with a condensed nucleus), however it is not expressing Flag-LRRK2, so would not be included in the assessment of neuronal death. the dose response of neuroprotection of FARMS was determined by counting the percentage of transfected neurons (stained with anti-Flag antibodies).
Assessment of Neuronal Death. […] Cells were centrifuged and counted and plated on poly-D-lysine coated glass coverslips at a density of 150,000/cm^2 in BrainPhys neuronal culture medium (StemCell Technologies) supplemented with SM1 Neuronal Supplement (StemCell Technologies), L-glutamine (0.5 mM) and […]. […] For quantification of apoptotic neuronal profiles, we used the approach described by Antoniou and colleagues. Briefly, individual Flag-positive neurons were assessed by a research blinded to the experimental conditions.

## FARM5: FAM-labeled hydrocarbon-stapled FADD Armadillo domain peptide; mass fits SEQ ID NO. 6 KVADLVQEVQQAXDLQXRSK ({FAM-PEG3′}-KVADLVQEVQQA[S5]DLQ[S5]RSK-NH2; staple 13-17; also: FAM label, optionally 5(6)FAM-PEG3 on N-terminal lysine) [FAM-labeled hydrocarbon-stapled FADD Armadillo domain peptide; 6 …XDLQXRSK]
0.1 µM
  percentage of neurons with apoptotic profiles: unable to significantly block apoptotic neuronal death
1 µM, listed as FARMS
  percentage of neurons with apoptotic profiles: significantly reduced; also recorded: reduced evidence of chromatin condensation
10 µM, listed as FARMS
  percentage of neurons with apoptotic profiles: significantly reduced; also recorded: restored neuronal death to WT levels
